In brackets after ≈: the same amount, converted by molar mass.
Tests used:
HL60/VINC [1] = test: Cytostatic activity in vitro, vincristine-induced resistant subline (MDR-1); type: cell-based, human
MCF7/DX = test: Cytostatic activity in vitro, resistant breast cancer subline MCF7/DX (MDR-1); type: cell-based, human
Source text: (§1) It should be mentioned that resistance index is above one order of magnitude better in comparison with doxorubicin and mitoxantrone.

CEM/C2 = test: Cytostatic activity, panel: CEM/C2 resistant to camptotecine; type: cell-based
Source text: (§2) Tables 8A and 8B present cytostatic activity in vitro of selected anthrapyridazone derivatives according to the invention against panel of sensitive and resistant cell lines, in comparison with doxorubicin, cisplatine and mitoxantrone.

[2] = tested on: human prostate cancer cell line LNCaP; test: Cytostatic activity in vitro, prostate cancer LNCaP; type: cell-based; details: 72 h continuous exposure
Source text: (§3) Table 5 presents activity in vitro of anthrapiridazone derivatives towards three cell lines of prostate cancer, naturally multidrug resistant, in comparison with references doxorubicin, mitoxantrone and taxol.

LoVo/DX = test: Cytostatic activity, panel: LoVo/DX resistant to doxorubicin; type: cell-based
Source text: as §2

[3] = tested on: human prostate cancer cell line DU145; test: Cytostatic activity in vitro, prostate cancer DU145; type: cell-based; details: 72 h continuous exposure
Source text: as §3

colon cancer LoVo = test: Cytostatic activity, panel: colon cancer LoVo; type: cell-based; details: 72 h continuous exposure
Source text: as §2

HL60/MX2 = test: Cytostatic activity, panel: HL60/MX2 resistant to mitoxantrone; type: cell-based
Source text: as §2

HT29/MIT = test: Cytostatic activity in vitro, mitoxantrone-induced resistant subline HT29/MIT; type: cell-based, human
Source text: (§4) Table 7 presents activity in vitro of selected anthrapyridazone derivatives according to the invention towards sensitive and resistant (MDR-1 type) cell line of human colon adenocarcinoma with resistance induced by mitoxantrone.

HL60/DX [4] = test: Substrate properties: activity against HL60/DX in the presence of BSO (MRP pump inhibitor); type: cell-based, human; details: FIG. 3
Source text: Activity in vitro against human promyelolytic leukemia HL60/DX in the presence of D-L-buthionine-(S,R)-sulphoximine (BSO), MRP pump inhibitor.

HL60/DX [5] = test: Cytostatic activity in vitro, doxorubicin-induced resistant subline (MRP); type: cell-based, human
uterus cancer MES-SA = test: Cytostatic activity, panel: uterus cancer MES-SA; type: cell-based; details: 72 h continuous exposure
Source text: as §2

HL60/VINC [6] = test: Substrate properties: activity against HL60/VINC in the presence of cyclosporine A (MDR-1 pump inhibitor); type: cell-based, human; details: FIG. 2
Source text: FIG. 2 shoes experimentally determined substrate properties of selected antgraoyridazone derivatives vs. Doxorubicin and Mitroxantrone. Activity in vitro against human promyelacytic leykemia cell line HL60/VINC in the presence of cyclosporine A (MDR-1 pump inhibitor).

[7] = tested on: human colon adenocarcinoma HT29; test: Cytostatic activity in vitro, colon adenocarcinoma HT29; type: cell-based; details: 72 h continuous exposure
Source text: as §4

[8] = tested on: human prostate cancer cell line PC3; test: Cytostatic activity in vitro, prostate cancer PC3; type: cell-based; details: 72 h continuous exposure
Source text: as §3

[9] = tested on: human breast cancer cell line MCF7; test: Cytostatic activity in vitro, breast cancer MCF7; type: cell-based; details: 72 h continuous exposure
Source text: as §1

CT-DNA = test: Interaction with isolated CT-DNA, fluorescence competition with ethidium bromide; type: binding
Source text: It could be supposed that this property explains cytostatic activity of compounds. In Table 9 there are presented quantitative data on the affinity to DNA of tested compounds using the fluorescence method and competitive affinity to DNA of bromine ethydine and tested compounds.

[10] = tested on: lymphoblastic leukemia CCRF-CEM; test: Cytostatic activity, panel: lymphoblastic leukemia CCRF-CEM; type: cell-based; details: 72 h continuous exposure
Source text: as §2

[11] = tested on: promyelolytic leukemia HL-60; test: Cytostatic activity, panel: promyelolytic leukemia HL-60; type: cell-based; details: 72 h continuous exposure
Source text: as §2

[12] = tested on: human promyelocytic leukemia cell line HL-60; test: Cytostatic activity in vitro, HL-60 sensitive line; type: cell-based; details: 50% inhibition of cell growth after 72 h continuous exposure; read-out: HL60 IC50
MES-SA/DX5 = test: Cytostatic activity, panel: MES-SA/DX5 resistant to doxorubicin; type: cell-based
Source text: as §2

[13] = IC50(resistant cells)/IC50(sensitive cells)

SMILES: CNCCNc1ccc2c(=O)n(CCN(C)C)nc3c2c1C(=O)c1ccccc1-3 [BS-154, 2-[2-(Dimethyloamino)ethyl]-6-{[2-(methylamino)ethyl]amino}-2,7-dihydro-3H -dibenzo[de,h]cynnoline-3,7-dione]
- IC50 (HL60/VINC [1]; 72 h continuous exposure): 8.1 ± 1 nM
- RI resistance index HL60/VINC (HL60/VINC [1]; IC50(resistant cells)/IC50(sensitive cells), HL60/VINC vs HL60, 72 h): 9.0
- IC50 (MCF7/DX; 72 h continuous exposure): 8.7 ± 1.2 nM
- RI resistance index MCF7/DX (MCF7/DX; IC50(resistant cells)/IC50(sensitive cells), MCF7/DX vs MCF7): 1.0
- IC50 CEM/C2 (CEM/C2; 72 h continuous exposure): 1.24 ± 1.37 ng/mL (≈ 0.00317 µM)
- RI CCRF-CEM CEM/C2 (CEM/C2; [13]): 0.3
- IC50 [2]: 2.6 ± 0.3 nM
- IC50 LoVo/DX (LoVo/DX; 72 h continuous exposure): 68.42 ± 12.73 ng/mL (≈ 0.175 µM)
- RI LoVo LoVo/DX (LoVo/DX; [13]): 44.7
- IC50 [3]: 3 ± 0.7 nM
- IC50 LoVo (colon cancer LoVo): 1.53 ± 1.02 ng/mL (≈ 0.00391 µM)
- IC50 HL60/MX2 (HL60/MX2; 72 h continuous exposure): 5.45 ± 3.04 ng/mL (≈ 0.0139 µM)
- RI HL60 HL60/MX2 (HL60/MX2; [13]): 4.9
- IC50 (HT29/MIT; 72 h continuous exposure): 11.2 ± 2.2 nM
- RI resistance index HT29/MIT (HT29/MIT; IC50(resistant cells)/IC50(sensitive cells), HT29/MIT vs HT29): 2.1
- Effect of MRP protein inhibitor (BSO) on cytostatic activity (HL60/DX [4]): only partially
- IC50 (HL60/DX [5]; 72 h continuous exposure): 375 ± 41 nM
- RI resistance index HL60/DX (HL60/DX [5]; IC50(resistant cells)/IC50(sensitive cells), HL60/DX vs HL60, 72 h): 416.7
- IC50 MES-SA (uterus cancer MES-SA): 13.33 ± 2.38 ng/mL (≈ 0.0341 µM)
- Effect of blocking MDR-1 pump with cyclosporine A (CSA) on cytostatic activity (HL60/VINC [6]): does not essentially affect the cytostatic activity
- IC50 [7]: 5.2 ± 1.3 nM
- IC50 [8]: 14 ± 3.3 nM
- IC50 [9]: 8.8 ± 0.6 nM
- IC50 (CT-DNA; 50% decrease in fluorescence intensity of DNA-bromide ethydine complex): 290 ± 10 nM
- Kapp relative constant of DNA-compound bonding (CT-DNA; Kapp = (1.26/C50) × KEtBr, KEtBr = 10^7M): 4.28e+07 M⁻¹
- IC50 CCRF-CEM [10]: 3.73 ± 1.93 ng/mL (≈ 0.00953 µM)
- IC50 HL60 [11]: 1.11 ± 0.02 ng/mL (≈ 0.00284 µM)
- IC50 [12]: 0.9 ± 0.1 nM
- IC50 MES-SA/DX5 (MES-SA/DX5; 72 h continuous exposure): 38.33 ± 11.36 ng/mL (≈ 0.0979 µM)
- RI MES-SA MES-SA/DX5 (MES-SA/DX5; [13]): 2.9

Source: patent publication US9096536B2, “Asymmetrically substituted anthrapyridazone derivatives as cytostatics” (BS-154 S.P. ZO.O., priority 2011, dated 2015)
